From patent US9775844B2, “Heterocyclic compounds and uses thereof” (Infinity Pharmaceuticals, Inc., priority 2014, dated 2017)

What was measured:
PI3K α = PI3K α (Homo sapiens (Human), UniProt P42336); test: PI3-Kinase Promega ADP-Glo Max assay; type: biochemical
PI3K β = PI3K β (Homo sapiens (Human), UniProt P42338); test: PI3-Kinase Promega ADP-Glo Max assay; type: biochemical
PI3K δ = PI3K δ (Homo sapiens (Human), UniProt O00329); test: PI3-Kinase Promega ADP-Glo Max assay; type: biochemical
PI3K γ = PI3K γ (Homo sapiens (Human), UniProt P48736); test: PI3-Kinase Promega ADP-Glo Max assay; type: biochemical
[1] = target: PI3K-γ in RAW264.7 macrophages (Mus musculus (Mouse), UniProt Q9JHG7); test: Raw264.7 p110 γ assay (PI3K-γ selective cellular assay, C5a-stimulated phospho-AKT); type: cell-based; settings: for IC50: phospho-AKT, read-out: Raw264.7 p110 γ assay IC50
PI3K-δ in RAJI cells = PI3K-δ in RAJI cells (Homo sapiens (Human), UniProt O00329); test: RAJI p110 δ assay (PI3K-δ selective cellular assay, phospho-AKT); type: cell-based; settings: phospho-AKT; read-out: RAJI p110 δ assay IC50

PI3K-γ in RAW264.7 macrophages, sequence (Q9JHG7 whole entry): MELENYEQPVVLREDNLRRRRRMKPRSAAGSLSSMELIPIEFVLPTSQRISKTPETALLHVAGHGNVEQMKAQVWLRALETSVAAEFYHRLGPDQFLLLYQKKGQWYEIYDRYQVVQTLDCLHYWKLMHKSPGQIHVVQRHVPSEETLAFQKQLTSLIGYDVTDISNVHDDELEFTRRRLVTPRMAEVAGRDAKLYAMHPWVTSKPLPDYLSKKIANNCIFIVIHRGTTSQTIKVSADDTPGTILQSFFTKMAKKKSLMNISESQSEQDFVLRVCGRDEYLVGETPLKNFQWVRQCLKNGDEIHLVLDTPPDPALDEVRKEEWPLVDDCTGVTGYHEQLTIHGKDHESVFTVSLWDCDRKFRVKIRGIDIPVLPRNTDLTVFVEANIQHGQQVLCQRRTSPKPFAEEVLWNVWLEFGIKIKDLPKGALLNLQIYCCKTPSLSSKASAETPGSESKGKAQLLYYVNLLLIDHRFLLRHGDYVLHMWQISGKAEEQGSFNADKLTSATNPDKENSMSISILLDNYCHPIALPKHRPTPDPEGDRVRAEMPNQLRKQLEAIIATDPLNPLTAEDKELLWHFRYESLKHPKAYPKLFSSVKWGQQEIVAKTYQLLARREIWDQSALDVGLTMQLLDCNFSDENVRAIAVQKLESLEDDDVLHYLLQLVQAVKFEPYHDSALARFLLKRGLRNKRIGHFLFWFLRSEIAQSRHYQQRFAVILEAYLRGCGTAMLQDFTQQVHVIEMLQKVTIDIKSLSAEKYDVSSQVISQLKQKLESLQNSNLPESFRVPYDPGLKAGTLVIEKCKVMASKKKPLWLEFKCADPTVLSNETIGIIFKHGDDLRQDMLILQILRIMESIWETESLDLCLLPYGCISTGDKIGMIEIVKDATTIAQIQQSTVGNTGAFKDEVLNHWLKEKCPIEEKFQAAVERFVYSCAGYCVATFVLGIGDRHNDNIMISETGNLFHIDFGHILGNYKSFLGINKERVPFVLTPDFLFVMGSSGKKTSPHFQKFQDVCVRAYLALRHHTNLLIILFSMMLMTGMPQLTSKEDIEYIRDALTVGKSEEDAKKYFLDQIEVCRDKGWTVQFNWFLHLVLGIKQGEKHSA
PI3K γ, sequence (P48736 whole entry): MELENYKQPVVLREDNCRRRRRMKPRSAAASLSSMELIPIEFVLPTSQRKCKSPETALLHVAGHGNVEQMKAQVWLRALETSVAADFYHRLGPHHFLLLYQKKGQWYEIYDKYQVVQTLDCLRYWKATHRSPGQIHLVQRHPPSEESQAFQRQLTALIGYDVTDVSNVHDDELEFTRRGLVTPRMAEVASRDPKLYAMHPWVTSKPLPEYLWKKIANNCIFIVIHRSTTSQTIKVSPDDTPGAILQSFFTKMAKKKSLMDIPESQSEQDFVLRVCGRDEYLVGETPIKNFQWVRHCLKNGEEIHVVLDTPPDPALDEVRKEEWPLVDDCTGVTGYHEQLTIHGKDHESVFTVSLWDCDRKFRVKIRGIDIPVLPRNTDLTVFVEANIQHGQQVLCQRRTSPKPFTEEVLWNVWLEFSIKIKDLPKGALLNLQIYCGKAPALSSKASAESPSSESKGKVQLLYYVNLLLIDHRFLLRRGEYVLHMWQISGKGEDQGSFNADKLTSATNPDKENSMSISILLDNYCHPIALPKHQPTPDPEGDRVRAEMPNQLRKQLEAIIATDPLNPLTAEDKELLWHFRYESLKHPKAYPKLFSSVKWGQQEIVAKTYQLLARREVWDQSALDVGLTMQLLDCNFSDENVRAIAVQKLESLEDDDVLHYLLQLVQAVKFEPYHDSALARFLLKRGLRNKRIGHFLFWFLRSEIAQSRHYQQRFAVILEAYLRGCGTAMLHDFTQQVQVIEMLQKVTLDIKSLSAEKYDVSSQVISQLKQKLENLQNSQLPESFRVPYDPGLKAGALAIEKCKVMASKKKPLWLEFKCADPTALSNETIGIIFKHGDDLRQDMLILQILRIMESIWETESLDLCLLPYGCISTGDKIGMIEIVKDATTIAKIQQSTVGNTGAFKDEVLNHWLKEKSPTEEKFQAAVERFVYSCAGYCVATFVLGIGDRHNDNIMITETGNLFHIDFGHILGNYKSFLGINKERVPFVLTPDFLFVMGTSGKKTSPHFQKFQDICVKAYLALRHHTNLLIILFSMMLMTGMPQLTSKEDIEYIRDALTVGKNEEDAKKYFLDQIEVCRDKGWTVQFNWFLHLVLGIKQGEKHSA
PI3K β, sequence (P42338 whole entry): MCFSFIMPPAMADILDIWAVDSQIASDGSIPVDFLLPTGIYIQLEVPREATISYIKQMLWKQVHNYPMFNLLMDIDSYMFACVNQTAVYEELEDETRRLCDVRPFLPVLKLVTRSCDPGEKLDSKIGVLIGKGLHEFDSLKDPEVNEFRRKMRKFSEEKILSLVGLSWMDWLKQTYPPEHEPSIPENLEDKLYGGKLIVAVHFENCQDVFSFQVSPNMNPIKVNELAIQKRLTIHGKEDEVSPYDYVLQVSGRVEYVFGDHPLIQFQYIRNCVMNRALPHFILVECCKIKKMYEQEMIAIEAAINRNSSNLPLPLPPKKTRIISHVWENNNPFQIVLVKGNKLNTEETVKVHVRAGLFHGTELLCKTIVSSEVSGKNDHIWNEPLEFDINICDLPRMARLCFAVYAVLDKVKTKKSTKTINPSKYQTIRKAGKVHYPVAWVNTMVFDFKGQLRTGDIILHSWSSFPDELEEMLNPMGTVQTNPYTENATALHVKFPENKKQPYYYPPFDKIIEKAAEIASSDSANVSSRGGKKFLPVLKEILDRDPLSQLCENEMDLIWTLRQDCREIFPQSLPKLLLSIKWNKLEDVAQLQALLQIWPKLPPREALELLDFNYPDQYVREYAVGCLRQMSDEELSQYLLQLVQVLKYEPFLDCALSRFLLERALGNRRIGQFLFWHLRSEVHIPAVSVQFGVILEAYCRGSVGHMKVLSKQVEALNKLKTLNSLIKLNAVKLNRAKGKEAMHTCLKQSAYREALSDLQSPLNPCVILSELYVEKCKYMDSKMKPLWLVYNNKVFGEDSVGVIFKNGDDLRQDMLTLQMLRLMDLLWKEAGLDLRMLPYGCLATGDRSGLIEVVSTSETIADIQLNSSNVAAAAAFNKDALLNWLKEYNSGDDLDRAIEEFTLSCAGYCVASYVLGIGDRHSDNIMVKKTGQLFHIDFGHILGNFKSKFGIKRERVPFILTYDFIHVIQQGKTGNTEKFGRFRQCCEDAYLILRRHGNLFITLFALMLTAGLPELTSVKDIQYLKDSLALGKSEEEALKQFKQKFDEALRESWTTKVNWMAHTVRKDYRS
PI3K β, sequence (P27986 whole entry partner): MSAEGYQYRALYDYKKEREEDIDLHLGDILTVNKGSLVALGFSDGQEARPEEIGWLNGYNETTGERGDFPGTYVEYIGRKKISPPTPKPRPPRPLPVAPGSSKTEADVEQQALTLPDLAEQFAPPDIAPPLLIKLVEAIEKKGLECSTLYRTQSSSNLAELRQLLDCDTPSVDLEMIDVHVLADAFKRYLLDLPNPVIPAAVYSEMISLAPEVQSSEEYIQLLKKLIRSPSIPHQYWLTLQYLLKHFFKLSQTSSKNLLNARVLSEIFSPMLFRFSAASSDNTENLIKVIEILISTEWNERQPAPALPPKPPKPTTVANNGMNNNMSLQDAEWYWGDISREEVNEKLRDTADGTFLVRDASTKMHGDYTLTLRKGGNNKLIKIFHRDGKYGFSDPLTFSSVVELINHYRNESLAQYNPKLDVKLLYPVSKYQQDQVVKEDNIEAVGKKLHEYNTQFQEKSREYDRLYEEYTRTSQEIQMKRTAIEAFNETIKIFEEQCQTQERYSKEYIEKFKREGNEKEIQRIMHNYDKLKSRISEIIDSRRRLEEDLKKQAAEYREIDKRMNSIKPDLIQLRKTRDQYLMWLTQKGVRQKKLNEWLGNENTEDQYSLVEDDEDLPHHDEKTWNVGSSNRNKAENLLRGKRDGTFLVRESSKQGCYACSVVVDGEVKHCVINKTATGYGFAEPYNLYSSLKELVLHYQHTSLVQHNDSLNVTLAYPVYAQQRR
PI3K α, sequence (P42336 whole entry): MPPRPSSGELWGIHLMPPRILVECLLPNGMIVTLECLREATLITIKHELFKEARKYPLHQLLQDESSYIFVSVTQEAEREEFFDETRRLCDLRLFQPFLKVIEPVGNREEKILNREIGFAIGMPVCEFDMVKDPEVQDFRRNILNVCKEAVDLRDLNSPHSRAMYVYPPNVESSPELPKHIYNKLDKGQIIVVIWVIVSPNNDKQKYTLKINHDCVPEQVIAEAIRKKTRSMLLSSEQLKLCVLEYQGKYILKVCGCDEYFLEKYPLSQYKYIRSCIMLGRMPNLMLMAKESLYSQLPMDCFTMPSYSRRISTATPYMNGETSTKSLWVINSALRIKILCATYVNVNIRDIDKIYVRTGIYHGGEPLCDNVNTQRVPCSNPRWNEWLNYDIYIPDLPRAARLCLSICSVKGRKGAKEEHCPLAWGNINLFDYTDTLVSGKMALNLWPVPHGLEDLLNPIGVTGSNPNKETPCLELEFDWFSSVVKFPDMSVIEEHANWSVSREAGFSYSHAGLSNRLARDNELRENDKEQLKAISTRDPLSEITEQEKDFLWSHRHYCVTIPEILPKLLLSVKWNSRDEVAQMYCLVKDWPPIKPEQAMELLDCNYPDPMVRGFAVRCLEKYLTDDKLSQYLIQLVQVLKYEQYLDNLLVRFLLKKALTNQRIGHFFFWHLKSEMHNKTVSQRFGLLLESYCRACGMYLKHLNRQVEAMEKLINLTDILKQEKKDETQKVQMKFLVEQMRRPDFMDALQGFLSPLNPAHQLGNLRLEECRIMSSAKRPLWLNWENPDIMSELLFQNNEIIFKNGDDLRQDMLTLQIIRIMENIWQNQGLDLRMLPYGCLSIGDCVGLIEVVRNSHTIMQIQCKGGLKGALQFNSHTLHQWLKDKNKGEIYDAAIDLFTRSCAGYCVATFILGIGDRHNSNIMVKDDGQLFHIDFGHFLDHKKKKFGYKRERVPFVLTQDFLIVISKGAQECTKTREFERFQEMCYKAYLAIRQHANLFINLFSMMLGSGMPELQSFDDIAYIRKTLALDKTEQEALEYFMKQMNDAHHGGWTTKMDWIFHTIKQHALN
PI3K α, sequence (P27986 whole entry partner): as the sequence (P27986 whole entry partner) above

| SMILES | IC50 (PI3K α) | IC50 (PI3K β) | IC50 (PI3K δ) | IC50 (PI3K γ) | PI3K δ/PI3K γ IC50 (selectivity) (PI3K γ) | RAJIδ/Raw264.7 γ IC50 (selectivity) [1] | IC50 [1] | IC50 (PI3K-δ in RAJI cells) |
| --- | --- | --- | --- | --- | --- | --- | --- | --- |
| C[C@H](NC(=O)c1c(N)nn2cccnc12)c1cc2cccc(C#CCN3CCN(C)CC3)c2c(=O)n1-c1ccccc1 [Compound 56] | 5 to 10 µM | 5 to 10 µM | 5 to 10 µM | 0.1 to 0.5 µM | X (X = 10 to <50) | V (V = 0.1 to 1) | 0.1 to 10 µM | 0.1 to 0.5 µM |
| Cc1csc(C#Cc2cccc3cc([C@H](C)NC(=O)c4c(N)nn5cccnc45)n(-c4ccccc4)c(=O)c23)n1 [Compound 60] | 5 to 10 µM | 5 to 10 µM | 5 to 10 µM | 0.1 to 0.5 µM | X (X = 10 to <50) | Y (Y = 50 to <850) | 0.001 to 0.05 µM | 0.1 to 0.5 µM |
| C[C@H](NC(=O)c1c(N)nn2cccnc12)c1cc2cccc(C#CC3(O)CN4CCC3CC4)c2c(=O)n1-c1ccccc1 (some centres unmarked) [Compound 62] | 5 to 10 µM | 5 to 10 µM | 5 to 10 µM | 0.5 to 1 µM | X (X = 10 to <50) | V (V = 0.1 to 1) | 0.1 to 10 µM | 1 to 10 µM |
| Cc1nc(C#Cc2cccc3nc([C@H](C)NC(=O)c4c(N)nn5cccnc45)n(-c4ccccc4)c(=O)c23)cs1 [Compound 63] | 5 to 10 µM | 5 to 10 µM | 5 to 10 µM | 0.001 to 0.1 µM | Y (Y = 50 to <850) | Y (Y = 50 to <850) | 0.001 to 0.05 µM | 0.5 to 1 µM |
| C[C@H](NC(=O)c1c(N)nn2cccnc12)c1cc2cccc(C#CC3CCCC3)c2c(=O)n1-c1ccccc1 [Compound 64] | 5 to 10 µM | 5 to 10 µM | 5 to 10 µM | 1 to 5 µM | W (W = >1 to <10) | X (X = 10 to <50) | 0.1 to 10 µM | 1 to 10 µM |
| C[C@H](NC(=O)c1c(N)nn2cccnc12)c1cc2cccc(C#CC3CCCCC3)c2c(=O)n1-c1ccccc1 [Compound 65] | 5 to 10 µM | 5 to 10 µM | 5 to 10 µM | 1 to 5 µM | W (W = >1 to <10) | X (X = 10 to <50) | 0.1 to 10 µM | 1 to 10 µM |
| Cc1ncccc1C#Cc1cccc2cc([C@H](C)NC(=O)c3c(N)nn4cccnc34)n(-c3ccccc3)c(=O)c12 [Compound 67] | 5 to 10 µM | 5 to 10 µM | 5 to 10 µM | 1 to 5 µM | W (W = >1 to <10) | X (X = 10 to <50) | 0.1 to 10 µM | 1 to 10 µM |
| C/C=C/c1cccc2cc([C@H](C)NC(=O)c3c(N)nn4cccnc34)n(-c3ccccc3)c(=O)c12 [Compound 70] | 5 to 10 µM | 5 to 10 µM | 5 to 10 µM | 0.1 to 0.5 µM | X (key: V = 0.1 to 1; W = >1 to <10; X = 10 to <50; Y = 50 to <850) | X (X = 10 to <50) | 0.001 to 0.05 µM | 0.001 to 0.1 µM |
| C[C@H](NC(=O)c1c(N)nn2cccnc12)c1cc2cccc(C#CC3CCNCC3)c2c(=O)n1-c1ccccc1 [Compound 72] | 5 to 10 µM | 5 to 10 µM | 5 to 10 µM | 0.5 to 1 µM | X (X = 10 to <50) | W (W = >1 to <10) | 0.1 to 10 µM | 1 to 10 µM |
| C[C@H](NC(=O)c1c(N)nn2cccnc12)c1cc2cccc(C#CC3CNC3)c2c(=O)n1-c1ccccc1 [Compound 74] | 5 to 10 µM | 5 to 10 µM | 1 to 5 µM | 0.5 to 1 µM | W (key: V = 0.1 to 1; W = >1 to <10; X = 10 to <50; Y = 50 to <850) | W (key: V = 0.1 to 1; W = >1 to <10; X = 10 to <50; Y = 50 to <850) | 0.1 to 10 µM | 1 to 10 µM |
| Cc1ncsc1C#Cc1cccc2cc([C@H](C)NC(=O)c3c(N)nn4cccnc34)n(-c3ccccc3)c(=O)c12 [Compound 75] | 5 to 10 µM | 5 to 10 µM | 5 to 10 µM | 1 to 5 µM | W (W = >1 to <10) | Y (Y = 50 to <850) | 0.001 to 0.05 µM | 1 to 10 µM |
| Cc1ccc(C#Cc2cccc3cc([C@H](C)NC(=O)c4c(N)nn5cccnc45)n(-c4ccccc4)c(=O)c23)cn1 [Compound 77] | 5 to 10 µM | 5 to 10 µM | 5 to 10 µM | 0.001 to 0.1 µM | Y (Y = 50 to <850) | Y (Y = 50 to <850) | 0.001 to 0.05 µM | 0.5 to 1 µM |

Next, values leading:

| IC50 (PI3K α) | IC50 (PI3K β) | IC50 (PI3K δ) | IC50 (PI3K γ) | PI3K δ/PI3K γ IC50 (selectivity) (PI3K γ) | RAJIδ/Raw264.7 γ IC50 (selectivity) [1] | IC50 [1] | IC50 (PI3K-δ in RAJI cells) | SMILES |
| --- | --- | --- | --- | --- | --- | --- | --- | --- |
| 5 to 10 µM | 5 to 10 µM | 1 to 5 µM | 0.001 to 0.1 µM | Y (Y = 50 to <850) | W (W = >1 to <10) | 0.001 to 0.05 µM | 0.001 to 0.1 µM | C#Cc1cccc2nc([C@H](C)NC(=O)c3c(N)nn4cccnc34)n(-c3ccc(F)cc3)c(=O)c12 [Compound 50] |
| 5 to 10 µM | 1 to 5 µM | 1 to 5 µM | 0.1 to 0.5 µM | W (W = >1 to <10) | W (W = >1 to <10) | 0.001 to 0.05 µM | 0.001 to 0.1 µM | CC#Cc1cccc2cc(C(C)NC(=O)c3c(N)nn4cccnc34)c(-c3ccccc3)nc12 (centres unmarked) [Compound 51] |
| 1 to 5 µM | 1 to 5 µM | 1 to 5 µM | 0.001 to 0.1 µM | Y (Y = 50 to <850) | W (W = >1 to <10) | 0.001 to 0.05 µM | 0.1 to 0.5 µM | C[C@H](NC(=O)c1c(N)nn2cccnc12)c1cc2cccc(C#Cc3cscn3)c2c(=O)n1-c1ccccc1 [Compound 54] |
| 1 to 5 µM | 1 to 5 µM | 5 to 10 µM | 1 to 5 µM | W (W = >1 to <10) | X (X = 10 to <50) | 0.001 to 0.05 µM | 0.5 to 1 µM | C[C@H](NC(=O)c1c(N)nn2cccnc12)c1nc2cccc(C#Cc3cnn(C)c3)c2c(=O)n1C [Compound 55] |
| 5 to 10 µM | 5 to 10 µM | 5 to 10 µM | 0.5 to 1 µM | W (W = >1 to <10) | W (W = >1 to <10) | 0.05 to 0.1 µM | 0.1 to 0.5 µM | C[C@H](NC(=O)c1c(N)nn2cccnc12)c1cc2cccc(C#CCN(C)C)c2c(=O)n1-c1ccccc1 [Compound 57] |
| 5 to 10 µM | 5 to 10 µM | 5 to 10 µM | 1 to 5 µM | W (W = >1 to <10) | V (V = 0.1 to 1) | 0.1 to 10 µM | 0.5 to 1 µM | C[C@H](NC(=O)c1c(N)nn2cccnc12)c1cc2cccc(C#CC(F)(F)F)c2c(=O)n1-c1ccccc1 [Compound 58] |
| 5 to 10 µM | 5 to 10 µM | 5 to 10 µM | 0.1 to 0.5 µM | X (X = 10 to <50) | X (X = 10 to <50) | 0.001 to 0.05 µM | 0.1 to 0.5 µM | C[C@H](NC(=O)c1c(N)nn2cccnc12)c1cc2cccc(C#Cc3nccs3)c2c(=O)n1-c1ccccc1 [Compound 59] |
| 5 to 10 µM | 5 to 10 µM | 5 to 10 µM | 0.5 to 1 µM | X (X = 10 to <50) | Y (Y = 50 to <850) | 0.001 to 0.05 µM | 1 to 10 µM | Cc1ccncc1C#Cc1cccc2cc([C@H](C)NC(=O)c3c(N)nn4cccnc34)n(-c3ccccc3)c(=O)c12 [Compound 61] |
| 5 to 10 µM | 1 to 5 µM | 1 to 5 µM | 0.001 to 0.1 µM | X (X = 10 to <50) | X (X = 10 to <50) | 0.001 to 0.05 µM | 0.1 to 0.5 µM | C[C@H](NC(=O)c1c(N)nn2cccnc12)c1cc2cccc(C#Cc3cocn3)c2c(=O)n1-c1ccccc1 [Compound 66] |
| 5 to 10 µM | 5 to 10 µM | 5 to 10 µM | 1 to 5 µM | W (W = >1 to <10) | W (W = >1 to <10) | 0.1 to 10 µM | 1 to 10 µM | Cc1cnc(C(=O)N[C@@H](C)c2cc3cccc(C#Cc4cnn(C)c4)c3c(=O)n2-c2ccccc2)c(N)n1 [Compound 68] |
| 5 to 10 µM | 5 to 10 µM | 5 to 10 µM | 0.1 to 0.5 µM | X (X = 10 to <50) | Y (Y = 50 to <850) | 0.001 to 0.05 µM | 0.5 to 1 µM | C[C@H](NC(=O)c1c(N)nn2cccnc12)c1cc2cccc(C#Cc3ccnn3C)c2c(=O)n1-c1ccccc1 [Compound 73] |
| 5 to 10 µM | 5 to 10 µM | 5 to 10 µM | 0.1 to 0.5 µM | Y (Y = 50 to <850) | X (X = 10 to <50) | 0.001 to 0.05 µM | 0.1 to 0.5 µM | Cc1ncc(C#Cc2cccc3cc([C@H](C)NC(=O)c4c(N)nn5cccnc45)n(-c4ccccc4)c(=O)c23)s1 [Compound 76] |
| 5 to 10 µM | 5 to 10 µM | 5 to 10 µM | 0.1 to 0.5 µM | X (X = 10 to <50) | X (X = 10 to <50) | 0.001 to 0.05 µM | 0.1 to 0.5 µM | Cc1scnc1C#Cc1cccc2cc([C@H](C)NC(=O)c3c(N)nn4cccnc34)n(-c3ccccc3)c(=O)c12 [Compound 78] |
